Assay [1] relates to Propionic Acidemia (PA) primary fibroblasts GM00371. The experiment in a line: Mitochondrial respiration, XFe96 Extracellular Flux Analyzer (OCR/ECAR), PA fibroblasts GM00371. Conditions: Homo sapiens, Fibroblast. Type of assay: cell-based.
Assay [2] relates to HepG2 cells. The experiment in a line: Glucose uptake (Glucose Uptake-Glo). Type of assay: cell-based. Conditions: Homo sapiens, read-out: % increase in Glucose Uptake.
The test system of assay [3] is monocyte-derived M1 macrophages. In words: M1 differentiation assay (macrophage TNFα, IL6, IL10 ELISA, FACS). In kind it is cell-based, human. Conditions: for activation at 10 µM: read-out: % Increase in IL-10 Secretion. Summed up: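 CD14+ human blood monocytes (100,000) differentiated 6 days with 10 ng/ml GM-CSF plus compound at 10 or 50 μM, refreshed days 2 and 4. Matured 24 h with GM-CSF, IFNγ, LPS plus compound. Supernatant TNFα, IL6, IL10 by ELISA; FACS M1 phenotype CD86+CD68+CD163−.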
For orientation: In an ELISA, binding on a coated surface is turned into a signal by an enzyme label.

[4] abbreviates: assay condition D (1 mM glucose, 10% FBS), read-out: Increase in Spare Capacity AUC.
Setting [5] is: assay condition A (10 mM glucose, 2 mM L-glutamine, 1 mM pyruvate, 10% FBS), read-out: Increase in Spare Capacity AUC.
[6] abbreviates: Homo sapiens, Macrophage, 10 uM, read-out: % decrease in Macrophage TNFα Secretion.
Setting [7] is: assay condition C (10 mM glucose, 10% FBS), read-out: Increase in Maximal Respiratory Capacity AUC.
Setting [8] is: assay condition A (10 mM glucose, 2 mM L-glutamine, 1 mM pyruvate, 10% FBS), read-out: Increase in Maximal Respiratory Capacity AUC.
[9] abbreviates: assay condition D (1 mM glucose, 10% FBS), read-out: Increase in Maximal Respiratory Capacity AUC.
The mark [10] stands for this setting: Homo sapiens, Macrophage, 10 uM.
Setting [11] is: Homo sapiens, Macrophage, 10 uM, read-out: % decrease in Macrophage IL-6 Secretion.

The results in this text go back to patent publication US20230107216A1, “PANTETHEINE DERIVATIVES AND USES THEREOF” (Comet Therapeutics, Inc., priority 2018, published 2023).

Like-named read-outs stand apart in the source and are kept apart here.

For `COC(=O)CCC(=O)SCCNC(=O)CCNC(=O)[C@H](OC(=O)CN)C(C)(C)CO` [Compound 1294, methyl 4-[(2-[3-[(2R)-2-[(2-aminoacetyl)oxy]-4-hydroxy-3,3-dimethylbutanamido]propanamido]ethyl)sulfanyl]-4-oxobutanoate], the activation at 10 µM in assay [1] (setting [4]) and in assay [2] was no less than 30% each time.

With `COC(=O)CC[C@H](N)C(=O)SCCNC(=O)CCNC(=O)[C@H](O)C(C)(C)CO` [Compound 411], the activation at 10 µM in assay [1] (setting [5]) is no less than 30%. In assay [3] (50 uM), the “% decrease in Live Macrophage Cells” value is no less than 20%. For the same compound, in assay [3] (setting [6]), the inhibition at 10 µM was no less than 30%.

With `CCCCCCC(=O)SCCNC(=O)CCNC(=O)[C@H](O)C(C)(C)CO` [Compound 372, (2R)—N-(2-[[2-(heptanoylsulfanyl)ethyl]carbamoyl]ethyl)-2,4-dihydroxy-3,3-dimethylbutanamide], in assay [1] (setting [7]), the activation at 50 µM is no less than 10%.

As for `CC(C)(CO)[C@@H](O)C(=O)NCCC(=O)NCCSC(=O)CCCN` [Compound 370, (2R)—N-[2-([2-[(4-aminobutanoyl)sulfanyl]ethyl]carbamoyl)ethyl]-2,4-dihydroxy-3,3-dimethylbutanamide], the activation at 10 µM in assay [1] (setting [8]) and in assay [1] (setting [9]) was no less than 10% throughout. The results for the activation at 50 µM in assay [1] (setting [7]) and in assay [2] were no less than 10% and no less than 30%, respectively.

Take `CC(C)(CO)[C@@H](O)C(=O)NCCC(=O)NCCSC(=O)CCC(=O)O` [Compound 1, (R)-4-((2-(3-(2,4-dihydroxy-3,3-dimethylbutanamido)propanamido)ethyl)thio)-4-oxobutanoic acid]: the activation at 50 µM in assay [1] (setting [7]) is no less than 10%. The activation at 10 µM in assay [1] (setting [4]) is no less than 10%; in assay [2], no less than 30%.

As to `CC(C)(CO)[C@@H](O)C(=O)NCCC(=O)NCCSC(CC(=O)OCC[N+](C)(C)C)C(=O)O` (stereo partly drawn) [Compound 51, [2-([3-carboxy-3-[(2-[3-[(2R)-2,4-dihydroxy-3,3-dimethylbutanamido]propanamido]ethyl)sulfanyl]propanoyl]oxy)ethyl]trimethylazanium], in assay [1] (setting [7]), the activation at 50 µM was no less than 10%. For the same compound, the activation at 10 µM in assay [2] was no less than 30%.

On to `C[C@H](O)CC(=O)CC(=O)SCCNC(=O)CCNC(=O)[C@H](O)C(C)(C)CO` [Compound 1306, (2R)-2,4-dihydroxy-N-[2-[(2-[[(5S)-5-hydroxy-3-oxohexanoyl]sulfanyl]ethyl)carbamoyl]ethyl]-3,3-dimethylbutanamide], for which, in assay [2], the activation at 10 µM was no less than 30%.

Take `CC(C)(CO)[C@@H](O)C(=O)NCCC(=O)NCCSC(=O)CC(O)C(=O)O` (stereo partly shown) [Compound 39]: in assay [3] (10 uM), the “% Increase in Live Macrophage Cells” value was no less than 20%. The activation at 10 µM in assay [3] (setting [10]) is no less than 30%. Besides, the inhibition at 10 µM in assay [3] (setting [11]) and in assay [3] (setting [6]) was no less than 30% throughout.

On to `CC(C)(CO)[C@@H](O)C(=O)NCCC(=O)NCCSC(=O)CCCO` [Compound 1304, (2R)-2,4-dihydroxy-N-[2-([2-[(4-hydroxybutanoyl)sulfanyl]ethyl]carbamoyl)ethyl]-3,3-dimethylbutanamide], for which the activation at 10 µM in assay [2] was no less than 20%.

Turning to `COC(=O)CCC(=O)SCCNC(=O)CCNC(=O)[C@H](OC(=O)CNC(C)=O)C(C)(C)CO` [Compound 1298, methyl 4-[(2-[3-[(2R)-2-[(2-acetamidoacetyl)oxy]-4-hydroxy-3,3-dimethylbutanamido]propanamido]ethyl)sulfanyl]-4-oxobutanoate], the activation at 10 µM in assay [1] (setting [5]) and in assay [1] (setting [4]) was no less than 30% throughout. In addition, the values for the activation at 50 µM in assay [1] (setting [5]), in assay [1] (setting [9]) and in assay [2] were no less than 50%, no less than 10% and no less than 20%, respectively.

For `CC(C(=O)SCCNC(=O)CCNC(=O)[C@H](O)C(C)(C)CO)[C@@H](C)O` (stereo partly drawn) [Compound 1244, (2R)-2,4-dihydroxy-N-{2-[(2-{[(3R)-3-hydroxy-2-methylbutanoyl]sulfanyl}ethyl)carbamoyl]ethyl}-3,3-dimethylbutanamide], the inhibition at 10 µM in assay [3] (setting [11]) and in assay [3] (setting [6]) was no less than 30% in each case.

Consider `COC(=O)/C=C/C(=O)SCCNC(=O)CCNC(=O)[C@H](O)C(C)(C)COP(=O)(O)O` [Compound 73, methyl (R,E)-4-((2-(3-(2-hydroxy-3,3-dimethyl-4-(phosphonooxy)butanamido)propanamido)ethyl)thio)-4-oxobut-2-enoate], for which the inhibition at 10 µM in assay [3] (setting [6]) is no less than 30%. Besides, the inhibition at 50 µM in assay [3] (Homo sapiens, Macrophage, 50 uM, read-out: % decrease in Macrophage IL-6 Secretion) was no less than 30%.

Take `CC(C)(CO)[C@@H](O)C(=O)NCCC(=O)NCCSC(=O)[C@@H](N)Cc1ccc(O)c(O)c1` [Compound 371, (2R)—N-[2-[(2-[[(2S)-2-amino-3-(3,4-dihydroxyphenyl)propanoyl]sulfanyl]ethyl)carbamoyl]ethyl]-2,4-dihydroxy-3,3-dimethylbutanamide]: in assay [2], the activation at 10 µM was no less than 30%.

In the case of `CC(=O)SCCNC(=O)CCNC(=O)[C@H](O)C(C)(C)COC(=O)[C@@H](N)Cc1ccc(O)c(O)c1` [Compound 498, (3R)-3-[(2-[[2-(acetylsulfanyl)ethyl]carbamoyl]ethyl)carbamoyl]-3-hydroxy-2,2-dimethylpropyl (2S)-2-amino-3-(3,4-dihydroxyphenyl)propanoate], the activation at 10 µM in assay [1] (setting [9]) was no less than 10%. Also, in assay [2], the activation at 50 µM is no less than 10%.

Consider `CC(=O)SCCNC(=O)CCNC(=O)[C@H](O)C(C)(C)COC(=O)[C@H](C)N` [Compound 502, (3R)-3-[(2-[[2-(acetylsulfanyl)ethyl]carbamoyl]ethyl)carbamoyl]-3-hydroxy-2,2-dimethylpropyl (2S)-2-aminopropanoate], for which, in assay [1] (setting [8]), the activation at 10 µM is no less than 30% and the activation at 50 µM was no less than 10%.

Turning to `CC(C)(CO)[C@@H](O)C(=O)NCCC(=O)NCCSC(=O)C1CCC(=O)N1` (stereo partly drawn) [Compound 1227, S-2-{3-[(R)-2,4-dihydroxy-3,3-dimethylbutyrylamino]propionylamino}ethyl 5-oxo-2-pyrrolidinecarbothioate], in assay [3] (setting [10]), the activation at 10 µM is no less than 30%. In addition, in assay [3] (setting [6]), the inhibition at 10 µM is no less than 30%.
